pIC50: −log10 of the molar value.

In this assay the target is CDK2 (UniProt P24941). Description: Enzyme Assay.
By pIC50 is commonly meant −log10 of the IC50, conventionally taken in molar units. Turning to `COc1ccccc1-c1cc(Nc2ccc(NC(=O)C(C)(C)C)cc2)ncn1`, the pIC50 is 5.00 to 6.00.
With `Nc1ccc(C(=O)Nc2ccc(Nc3cc(-c4ccccc4)ncn3)cc2)cc1`, the pIC50 was 3.60 to 5.00.
With `CC(C)(C)C(=O)Nc1ccc(Nc2cc(NCCN)ncn2)cc1` the figure was 3.60 to 5.00.
As for `COc1ccc(-c2cc(Nc3cccc(S(N)(=O)=O)c3)ncn2)cc1`, the pIC50 is 6.00 to 9.00.
To `COc1ccc(Cl)cc1-c1cc(Nc2ccc(NC(=O)c3ccc(N)cc3)cc2)ncn1` belongs 3.60 to 5.00; to `COC(=O)CN(c1ccc(Nc2cc(-c3ccc(O)cc3)ncn2)cc1)S(=O)(=O)c1ccc(C)cc1`, 6.00 to 9.00.
To `COc1ccccc1-c1cc(Nc2ccc(C(N)=O)cc2)ncn1` belongs 6.00 to 9.00.
To `Nc1ccc(C(=O)Nc2ccc(Nc3cc(NCCO)ncn3)cc2)cc1` belongs 3.60 to 5.00.
`COc1cccc(OC)c1-c1cc(Nc2ccc(NC(=O)c3ccc(N)cc3)cc2)ncn1` had a pIC50 of 3.60 to 5.00.
With `Cc1ccc(S(=O)(=O)Nc2ccc(Nc3cc(Cl)ncn3)cc2)cc1` the figure was 5.00 to 6.00; with `COc1ccccc1-c1cc(Nc2ccc(C(=O)Nc3ccc(N4CCOCC4)cc3)cc2)ncn1`, 5.00 to 6.00; with `COc1ccccc1-c1cc(Nc2ccc(NS(=O)(=O)c3ccc(C)cc3)cc2)ncn1`, 6.00 to 9.00.
For the compound `Nc1ccc(C(=O)Nc2ccc(Nc3cc(Cl)ncn3)cc2)cc1`, the pIC50 was 3.60 to 5.00.
The compound `COc1ccccc1-c1cc(Nc2ccc(-c3nc4ccccc4[nH]3)cc2)ncn1` gave a pIC50 of 6.00 to 9.00.
`COc1ccccc1-c1cc(Nc2ccc(NC(=O)C(C)(C)C)cc2C)ncn1`: the pIC50 is 3.60 to 5.00.
The compound `Cc1ccc(Nc2cc(-c3cccc(N)c3)ncn2)cc1NS(=O)(=O)c1cn(C)cn1` showed a pIC50 of 6.00 to 9.00.
`COc1ccccc1-c1cc(Nc2ccc(NC(=O)c3ccncc3)cc2)ncn1` gave a pIC50 of 3.60 to 5.00.
Regarding `CC(C)(C)C(=O)Nc1ccc(Nc2cc(-c3ccccc3F)ncn2)cc1`, the pIC50 is 3.60 to 5.00.
In turn, `COc1ccccc1-c1cc(Nc2ccc(NC(=O)C(c3ccccc3)C(C)C)cc2)ncn1` (centres undefined) gave a pIC50 of 3.60 to 5.00.
As for `COc1ccc(-c2cc(Nc3ccc(C(=O)N[C@@H]4CCCC[C@H]4N)cc3)ncn2)cc1.COc1ccc(-c2cc(Nc3ccc(C(=O)N[C@H]4CCCC[C@@H]4N)cc3)ncn2)cc1`, the pIC50 is 5.00 to 6.00.
As for `COc1ccccc1-c1cc(NCCc2ccncc2)ncn1`, the pIC50 is 3.60 to 5.00.
On to `Cc1ccc(Nc2cc(-c3ccccc3OCc3ccccc3)ncn2)cc1NS(C)(=O)=O`, for which the pIC50 was 6.00 to 9.00.
With `COc1ccccc1-c1cc(Nc2ccc(C(=O)N[C@@H]3CCCC[C@H]3O)cc2)ncn1.COc1ccccc1-c1cc(Nc2ccc(C(=O)N[C@H]3CCCC[C@@H]3O)cc2)ncn1` the figure was 5.00 to 6.00.
Take `COc1ccccc1-c1cc(Nc2ccc(NC(=O)CC3CCCCN3C(=O)OC(C)(C)C)cc2)ncn1` (centres undefined): the pIC50 was 5.00 to 6.00.
`COc1ccccc1-c1cc(Nc2ccc(NC(=N)N)cc2)ncn1`: the pIC50 is 5.00 to 6.00.
In the case of `COc1ccccc1-c1cc(Nc2ccc(NC(=O)c3ccccc3N)cc2)ncn1`, the pIC50 is 5.00 to 6.00.
As for `COc1ccc(C(C)C)cc1-c1cc(Nc2ccc(NC(=O)c3ccc(N)cc3)cc2)ncn1`, the pIC50 is 3.60 to 5.00.
Regarding `COc1ccccc1-c1cc(Nc2ccc(-c3nc4ccccc4o3)cc2)ncn1`, the pIC50 is 3.60 to 5.00.
`COc1ccccc1-c1cc(Nc2ccc(C(=O)NC(C)(C)C)cc2)ncn1` showed a pIC50 of 5.00 to 6.00.
To `COc1ccc(-c2cc(Nc3ccc(NC(=O)c4ccc(N)cc4)cc3)ncn2)cc1` belongs 5.00 to 6.00; to `O=C(Nc1ccc(Nc2cc(-c3ccccc3OCc3ccccc3)ncn2)cc1)[C@@H]1CCCCN1`, 6.00 to 9.00.
Regarding `CSc1ccccc1-c1cc(Nc2ccc(NC(=O)[C@@H]3CCCCN3)cc2)ncn1`, the pIC50 is 5.00 to 6.00.
`Cc1ccc(Nc2cc(-c3cccc(N)c3)ncn2)cc1NS(=O)(=O)c1cccc2cccnc12` gave a negative logarithm of the IC50 (pIC50) of 3.60 to 5.00.
In turn, `COc1ccccc1-c1cc(Nc2ccc(NC(=O)C(c3ccccc3)N(C)C)cc2)ncn1` (centres undefined) gave a pIC50 of 5.00 to 6.00.
Consider `CC(=O)Nc1cccc(-c2cc(Nc3ccc(C)c(NS(C)(=O)=O)c3)ncn2)c1`, for which the negative logarithm of the IC50 (pIC50) is 5.00 to 6.00.
For the compound `COc1ccccc1-c1cc(Nc2ccc(NC(=O)c3ccc4ccccc4n3)cc2)ncn1`, the pIC50 was 3.60 to 5.00.
To `COc1ccccc1-c1cc(Nc2ccc(NC(=O)c3nc4ccccc4s3)cc2)ncn1` belongs 3.60 to 5.00; to `Cc1ccc(Nc2cc(-c3ccccc3)ncn2)cc1NS(C)(=O)=O`, 6.00 to 9.00.
Take `Nc1cccc(-c2cc(Nc3ccc(S(N)(=O)=O)cc3)ncn2)c1`: the pIC50 was 6.00 to 9.00.
As for `CC(C)(C)C(=O)Nc1ccc(Nc2cc(NCCCO)ncn2)cc1`, the pIC50 was 3.60 to 5.00.
In turn, `COC(=O)c1ccc(Nc2cc(-c3ccccc3OC)ncn2)cc1` gave a pIC50 of 6.00 to 9.00.
With `COc1ccccc1-c1cc(Nc2cccc(N)c2)ncn1`, the pIC50 is 6.00 to 9.00.
To `CCOc1ccccc1-c1cc(Nc2ccc(NC(=O)c3ccc(N)cc3)cc2)ncn1` belongs 5.00 to 6.00; to `COc1ncccc1-c1cc(Nc2ccc(C)c(NS(C)(=O)=O)c2)ncn1`, 5.00 to 6.00; to `Cc1ccc(Nc2cc(-c3cccc(N(C)C)c3)ncn2)cc1NS(C)(=O)=O`, 5.00 to 6.00.
Compound `CC(C)Oc1ccccc1-c1cc(Nc2ccc(C(=O)N[C@@H]3CCCC[C@H]3N)cc2)ncn1.CC(C)Oc1ccccc1-c1cc(Nc2ccc(C(=O)N[C@H]3CCCC[C@@H]3N)cc2)ncn1` showed a pIC50 of 5.00 to 6.00.
Turning to `Nc1ccc(C(=O)Nc2ccc(Nc3cc(-c4ccccc4O)ncn3)cc2)cc1`, the pIC50 is 3.60 to 5.00.
To `Cc1ccc(Nc2cc(-c3cccc(NS(C)(=O)=O)c3)ncn2)cc1CS(N)(=O)=O` belongs 6.00 to 9.00; to `COc1ccccc1-c1cc(Nc2cccc(S(C)(=O)=O)c2)ncn1`, 6.00 to 9.00; to `Nc1ccc(C(=O)Nc2ccc(Nc3cc(NCC4CCCCC4)ncn3)cc2)cc1`, 3.60 to 5.00.
Compound `Nc1cccc(-c2cc(Nc3cccc(S(N)(=O)=O)c3)ncn2)c1` had a pIC50 of 5.00 to 6.00.
For `COc1cccc(-c2cc(Nc3ccc(NC(=O)[C@@H]4CCCCN4)cc3)ncn2)c1OC`, the pIC50 is 3.60 to 5.00.
With `COc1ccccc1-c1cc(Nc2ccc(NS(=O)(=O)c3ccc(-c4ccccc4)cc3)cc2)ncn1`, the pIC50 is 5.00 to 6.00.
`CC(C)(C)C(=O)Nc1ccc(Nc2cc(-c3cccnc3)ncn2)cc1` showed a pIC50 of 3.60 to 5.00.
In turn, `Cc1ccc(S(=O)(=O)Nc2ccc(Nc3cc(-c4ccc(O)cc4)ncn3)cc2)cc1` gave a pIC50 of 6.00 to 9.00.
With `COc1ccccc1-c1cc(Nc2ccc(NC(=O)C(N)c3ccc4ccccc4c3)cc2)ncn1` (centres undefined) the figure was 5.00 to 6.00.
`Cc1ccc(Nc2cc(-c3ccccc3O)ncn2)cc1NS(C)(=O)=O`: the pIC50 was 6.00 to 9.00.
For `COc1ccccc1-c1cc(Nc2ccc(NC(=O)c3ccc4[nH]cnc4c3)cc2)ncn1`, the pIC50 was 3.60 to 5.00.
In the case of `Nc1ccc(C(=O)Nc2ccc(Nc3cc(-c4ccc(O)cc4)ncn3)cc2)cc1`, the pIC50 was 5.00 to 6.00.
As for `C=Cc1ccccc1-c1cc(Nc2ccc(NC(=O)C(C)(C)C)cc2)ncn1`, the pIC50 was 3.60 to 5.00.
To `COc1cccc(-c2cc(Nc3ccc(C)c(NS(C)(=O)=O)c3)ncn2)c1` belongs 5.00 to 6.00; to `CC(C)(C)C(=O)Nc1ccc(Nc2cc(Cl)ncn2)cc1`, 3.60 to 5.00.
To `COc1ccccc1-c1cc(Nc2ccc(NC(=O)CN(C)C)cc2)ncn1` belongs 5.00 to 6.00; to `O=C(Nc1ccc(Nc2cc(-c3ccc(Oc4ccccc4)cc3)ncn2)cc1)[C@@H]1CCCCN1`, 5.00 to 6.00; to `c1ccc(COc2ccccc2-c2cc(NCCc3ccncc3)ncn2)cc1`, 5.00 to 6.00.
As for `COc1cccc(-c2cc(Nc3ccc(NC(=O)c4ccc(N)cc4)cc3)ncn2)c1OC`, the pIC50 is 5.00 to 6.00.
Regarding `COc1ccccc1-c1cc(Nc2ccc(NC(=O)NCc3ccc(C)cc3)cc2)ncn1`, the pIC50 is 3.60 to 5.00.
To `COc1ccccc1-c1cc(Nc2cccc(C(N)=O)c2)ncn1` belongs 6.00 to 9.00; to `CC(C)Oc1ccccc1-c1cc(NCCc2ccncc2)ncn1`, 5.00 to 6.00.
For the compound `COc1ccccc1-c1cc(Nc2ccc(NC(=O)c3ccc4ccccc4c3O)cc2)ncn1`, the pIC50 is 5.00 to 6.00.
Compound `CCc1ccccc1-c1cc(Nc2ccc(NC(=O)C(C)(C)C)cc2)ncn1` gave a pIC50 of 5.00 to 6.00.
`Cc1ccc(Nc2cc(-c3cccc(O)c3)ncn2)cc1NS(C)(=O)=O` had a pIC50 of 6.00 to 9.00.
For `COc1ccccc1-c1cc(Nc2ccc(NC(=O)NC(C)(C)C)cc2)ncn1`, the pIC50 was 5.00 to 6.00.
The compound `COc1ccccc1-c1cc(Nc2ccc(NC(=O)C3CCCCC3)cc2)ncn1` showed a pIC50 of 3.60 to 5.00.
To `COc1ccccc1-c1cc(Nc2ccc(NC(=O)Nc3ccc4c(c3)OCO4)cc2)ncn1` belongs 3.60 to 5.00; to `COC(=O)CN(c1ccc(Nc2cc(-c3ccccc3OC)ncn2)cc1)S(=O)(=O)c1ccc(C)cc1`, 5.00 to 6.00; to `COc1ccccc1-c1cc(Nc2ccc(C(=O)Nc3ccc(O)cc3)cc2)ncn1`, 5.00 to 6.00.
`COc1ccccc1-c1cc(Nc2ccc(N)cc2C)ncn1` had a pIC50 of 5.00 to 6.00.
Consider `CCCN(c1ccc(Nc2cc(-c3ccccc3OC)ncn2)cc1)S(=O)(=O)c1ccc(C)cc1`, for which the pIC50 is 3.60 to 5.00.
With `COc1ccccc1-c1cc(Nc2ccc(C)c(NS(C)(=O)=O)c2)ncn1` the figure was 6.00 to 9.00.
To `COc1cccc(-c2cc(Nc3ccc(NS(=O)(=O)c4ccc(C)cc4)cc3)ncn2)c1` belongs 3.60 to 5.00; to `COc1ccc(-c2cc(Nc3ccc(NS(=O)(=O)c4ccc(C)cc4)cc3)ncn2)cc1`, 5.00 to 6.00.
In turn, `COc1ccccc1-c1cc(N(C)c2ccc(NS(=O)(=O)c3ccc(C)cc3)cc2)ncn1` showed a pIC50 of 5.00 to 6.00.
The compound `CS(=O)(=O)Nc1cc(Nc2cc(-c3cccc(N)c3)ncn2)ccc1OCc1ccccc1` showed a pIC50 of 5.00 to 6.00.
With `COc1ccccc1-c1cc(Nc2ccc(C(=O)Nc3ccccc3)cc2)ncn1` the figure was 3.60 to 5.00; with `CC(C)(C)C(=O)Nc1ccc(Nc2cc(-c3ccccc3OCc3ccccc3)ncn2)cc1`, 5.00 to 6.00.
With `CCCS(=O)(=O)Nc1ccc(Nc2cc(-c3ccccc3OC)ncn2)cc1` the figure was 6.00 to 9.00; with `COc1ccccc1-c1cc(Nc2ccc(NC(=O)c3c[nH]c4ccccc34)cc2)ncn1`, 5.00 to 6.00; with `COc1ccccc1-c1cc(Nc2ccc(NC(=O)c3ccc4c(c3)OCO4)cc2)ncn1`, 5.00 to 6.00.

The record behind these values is the Kinase Knowledgebase extract (Sharma et al. 2016).
